Measurements published in patent US20080009418A1, “Selective Inhibitors” (Alchemia LTD., priority 2004, published 2008).

How the values were obtained:
Human neurokinin (NK1) = molecular target: T1, Human neurokinin (NK1) (Homo sapiens, UniProt P25103); assay: Radioligand binding, human neurokinin NK1 membranes, filtration, [125I]-Substance P; settings: compound at 10 μM; [125I]-Substance P
T1 construct: purchased Perkin Elmer Biosignal
In short: (§1)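 Percent inhibition of radioligand binding measured on recombinant human membranes: NK1 with [125I]-Substance P, KOP with [3H]-Diprenorphine. Incubation 1 h at room temperature, then harvest onto 0.3% PEI-soaked filters, cold Tris-HCl pH 7.4 washes and scintillation counting; non-specific binding from reference ligand wells.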

[1] = molecular target: T2, Human neuropeptide Y (NPY-Y1) (Homo sapiens, UniProt P25929); assay: Radioligand binding, human neuropeptide Y NPY-Y1 membranes, FlashPlate, [125I]-PYY; settings: compound at 10 μM; [125I]-PYY
T2 construct: purchased Perkin Elmer Biosignal
T2 sequence (P25929 1-384): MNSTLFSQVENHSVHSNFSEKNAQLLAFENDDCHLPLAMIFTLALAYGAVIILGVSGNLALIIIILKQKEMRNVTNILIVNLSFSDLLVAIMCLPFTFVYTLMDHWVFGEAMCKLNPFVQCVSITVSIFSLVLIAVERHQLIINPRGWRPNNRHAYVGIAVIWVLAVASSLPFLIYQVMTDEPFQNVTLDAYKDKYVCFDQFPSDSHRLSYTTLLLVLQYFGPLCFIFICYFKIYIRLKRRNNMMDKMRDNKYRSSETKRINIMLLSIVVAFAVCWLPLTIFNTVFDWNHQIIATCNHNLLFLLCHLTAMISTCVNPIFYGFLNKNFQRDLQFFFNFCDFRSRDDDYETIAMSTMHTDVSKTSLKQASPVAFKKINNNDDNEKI
In short: (§2)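 Cloned human receptor membranes were coated onto FlashPlate wells and incubated with radioligand and compound (added from a 0.5 mM DMSO daughter plate) for 1 hour at room temperature in the dark. Scintillation counting gave percent inhibition, with DMSO defining total and reference ligand defining non-specific binding.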

[2] = molecular target: T3, Human melanin-concentrating hormone (MCH1) (Homo sapiens, UniProt Q99705); assay: Radioligand binding, human melanin-concentrating hormone MCH1 membranes, FlashPlate, [125I]-S36057; settings: compound at 10 μM, [125I]-S36057
T3 construct: purchased Perkin Elmer Biosignal
T3 sequence (Q99705 whole entry): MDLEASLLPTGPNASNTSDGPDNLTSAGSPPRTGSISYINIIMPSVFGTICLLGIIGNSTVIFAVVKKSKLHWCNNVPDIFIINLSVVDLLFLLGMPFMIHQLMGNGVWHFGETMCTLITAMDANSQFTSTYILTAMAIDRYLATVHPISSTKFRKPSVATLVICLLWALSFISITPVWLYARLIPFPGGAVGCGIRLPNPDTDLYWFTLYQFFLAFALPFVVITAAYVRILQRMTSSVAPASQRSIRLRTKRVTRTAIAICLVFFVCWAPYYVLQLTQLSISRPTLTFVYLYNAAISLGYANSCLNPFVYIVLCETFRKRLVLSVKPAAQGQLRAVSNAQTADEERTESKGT
In short: as §2

Human κ-Opioid (KOP) = molecular target: T4, Human κ-Opioid (KOP) (Homo sapiens, UniProt P41145); assay: Radioligand binding, human κ-opioid (KOP) membranes, filtration, [3H]-Diprenorphine; settings: compound at 10 μM; [3H]-Diprenorphine
T4 construct: purchased Perkin Elmer Biosignal
T4 sequence (P41145 whole entry): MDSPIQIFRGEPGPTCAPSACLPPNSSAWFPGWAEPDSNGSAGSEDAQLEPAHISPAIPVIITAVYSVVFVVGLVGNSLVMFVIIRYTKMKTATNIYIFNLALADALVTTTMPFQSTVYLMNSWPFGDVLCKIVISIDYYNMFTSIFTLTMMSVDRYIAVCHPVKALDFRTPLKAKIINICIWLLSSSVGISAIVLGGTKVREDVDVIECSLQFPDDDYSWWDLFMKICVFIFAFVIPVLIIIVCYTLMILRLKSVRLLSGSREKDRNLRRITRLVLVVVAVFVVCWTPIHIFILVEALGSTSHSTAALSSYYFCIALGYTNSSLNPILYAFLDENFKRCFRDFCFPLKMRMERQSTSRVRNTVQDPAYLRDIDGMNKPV
In short: as §1

Human opioid (ORL1) = molecular target: T5, Human opioid (ORL1) (Homo sapiens, UniProt P41146); assay: Radioligand binding, human opioid ORL1 membranes, FlashPlate, [125I]-Nociceptin; settings: compound at 10 μM; [125I]-Nociceptin
T5 construct: purchased Perkin Elmer Biosignal
T5 sequence (P41146 whole entry): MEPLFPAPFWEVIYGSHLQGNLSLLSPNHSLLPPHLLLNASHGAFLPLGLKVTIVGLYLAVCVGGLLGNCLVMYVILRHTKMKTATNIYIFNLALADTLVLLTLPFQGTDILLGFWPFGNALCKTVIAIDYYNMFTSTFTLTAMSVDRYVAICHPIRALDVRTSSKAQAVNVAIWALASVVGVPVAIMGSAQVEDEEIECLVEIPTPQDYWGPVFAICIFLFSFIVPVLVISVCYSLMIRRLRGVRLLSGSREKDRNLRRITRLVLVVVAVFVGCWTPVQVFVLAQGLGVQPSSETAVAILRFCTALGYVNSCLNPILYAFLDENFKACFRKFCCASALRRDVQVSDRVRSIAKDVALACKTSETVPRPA
In short: as §2

Mouse urotensin (mUR2) = molecular target: T6, Mouse urotensin (mUR2) (Mus musculus, UniProt Q8VIH9); assay: Radioligand binding, mouse urotensin mUR2 membranes, FlashPlate, [125I]-Urotensin II; settings: compound at 10 μM; [125I]-Urotensin II
T6 construct: purchased Perkin Elmer Biosignal
T6 sequence (Q8VIH9 1-385): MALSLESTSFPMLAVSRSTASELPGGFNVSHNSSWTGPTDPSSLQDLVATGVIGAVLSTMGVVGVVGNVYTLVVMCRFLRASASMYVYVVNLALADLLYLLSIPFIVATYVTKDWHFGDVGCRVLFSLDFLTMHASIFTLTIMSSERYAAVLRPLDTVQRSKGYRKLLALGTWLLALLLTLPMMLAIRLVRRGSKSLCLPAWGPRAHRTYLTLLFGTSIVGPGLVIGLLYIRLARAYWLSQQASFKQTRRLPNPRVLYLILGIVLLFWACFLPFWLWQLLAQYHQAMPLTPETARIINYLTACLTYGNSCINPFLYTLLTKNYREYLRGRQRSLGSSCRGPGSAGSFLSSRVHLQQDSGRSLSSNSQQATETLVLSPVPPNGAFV
In short: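 Cloned mouse urotensin (mUR2) receptor membranes from Perkin Elmer Biosignal were immobilized in FlashPlate microplates using a proprietary coating. Each well got 19.5 μl buffer, then 0.5 μl of DMSO, reference ligand, or compound. Adding 5 μl of [125I]-Urotensin II, diluted to 5× final concentration in binding buffer, started binding. Plates were sealed with TopSeal-A and incubated 1 hour at room temperature in the dark. Wells were counted for 30 seconds each on a TopCount after a 60-second delay, and percentage inhibition was calculated.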

Human Melanocortin (MC3) = molecular target: T7, Human Melanocortin (MC3) (Homo sapiens, UniProt P41968); assay: Radioligand binding, human melanocortin MC3 membranes, FlashPlate, [125I]-NDP-αMSH; settings: compound at 10 μM; [125I]-NDP-αMSH
T7 construct: purchased Perkin Elmer Biosignal
T7 sequence (P41968 whole entry): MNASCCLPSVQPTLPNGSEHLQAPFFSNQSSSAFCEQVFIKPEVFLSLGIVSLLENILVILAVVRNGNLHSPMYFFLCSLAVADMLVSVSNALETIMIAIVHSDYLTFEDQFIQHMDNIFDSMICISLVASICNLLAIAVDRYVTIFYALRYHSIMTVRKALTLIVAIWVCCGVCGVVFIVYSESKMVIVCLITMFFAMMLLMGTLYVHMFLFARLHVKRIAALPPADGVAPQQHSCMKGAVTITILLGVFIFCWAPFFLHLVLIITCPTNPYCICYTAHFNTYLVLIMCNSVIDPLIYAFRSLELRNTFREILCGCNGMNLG
In short: as §2

Human Melanocortin (MC4) = molecular target: T8, Human Melanocortin (MC4) (Homo sapiens, UniProt P32245); assay: Radioligand binding, human melanocortin MC4 membranes, FlashPlate, [125I]-NDP-αMSH; settings: compound at 10 μM, [125I]-NDP-αMSH
T8 construct: purchased Perkin Elmer Biosignal
T8 sequence (P32245 whole entry): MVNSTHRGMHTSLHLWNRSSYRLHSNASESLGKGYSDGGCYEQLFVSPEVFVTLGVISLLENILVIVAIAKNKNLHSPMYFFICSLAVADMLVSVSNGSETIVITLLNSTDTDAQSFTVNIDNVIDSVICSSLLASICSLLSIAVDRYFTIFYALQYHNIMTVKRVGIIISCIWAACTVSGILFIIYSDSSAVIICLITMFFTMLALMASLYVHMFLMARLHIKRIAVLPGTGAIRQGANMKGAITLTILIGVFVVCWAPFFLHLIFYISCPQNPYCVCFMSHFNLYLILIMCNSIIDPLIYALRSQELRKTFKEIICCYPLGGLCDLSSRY
In short: as §2

Human μ-opioid (MOP) = molecular target: T9, Human μ-opioid (MOP) (Homo sapiens, UniProt P35372); assay: Radioligand binding, human μ-opioid (MOP) membranes, FlashPlate, [3H]-Naloxone; settings: compound at 10 μM, [3H]-Naloxone
T9 construct: purchased Perkin Elmer Biosignal
T9 sequence (P35372 whole entry): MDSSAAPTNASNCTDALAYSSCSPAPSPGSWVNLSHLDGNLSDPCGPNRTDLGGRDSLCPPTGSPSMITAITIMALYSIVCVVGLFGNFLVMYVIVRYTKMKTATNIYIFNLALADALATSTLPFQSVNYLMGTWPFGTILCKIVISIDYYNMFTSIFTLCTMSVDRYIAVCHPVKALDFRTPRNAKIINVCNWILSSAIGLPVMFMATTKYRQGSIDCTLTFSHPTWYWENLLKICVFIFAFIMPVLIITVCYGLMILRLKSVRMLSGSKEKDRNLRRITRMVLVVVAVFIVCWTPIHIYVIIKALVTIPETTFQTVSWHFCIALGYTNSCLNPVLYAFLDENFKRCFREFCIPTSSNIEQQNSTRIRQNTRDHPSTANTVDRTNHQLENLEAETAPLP
In short: as §2

Human melanocortin (MC5) = molecular target: T10, Human melanocortin (MC5) (Homo sapiens, UniProt P33032); assay: Radioligand binding, human melanocortin MC5 membranes, FlashPlate, [125I]-NDP-αMSH; settings: compound at 10 μM, [125I]-NDP-αMSH
T10 construct: purchased Perkin Elmer Biosignal
T10 sequence (P33032 whole entry): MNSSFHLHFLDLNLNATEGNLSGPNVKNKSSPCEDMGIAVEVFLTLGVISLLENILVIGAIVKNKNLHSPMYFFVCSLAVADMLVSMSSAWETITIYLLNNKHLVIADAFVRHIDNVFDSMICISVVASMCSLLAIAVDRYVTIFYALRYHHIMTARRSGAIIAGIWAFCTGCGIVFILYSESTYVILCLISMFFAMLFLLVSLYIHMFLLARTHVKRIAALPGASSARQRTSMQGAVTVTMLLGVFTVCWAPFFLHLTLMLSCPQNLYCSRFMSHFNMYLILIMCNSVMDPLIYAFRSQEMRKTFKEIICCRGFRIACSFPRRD
In short: as §2

Human δ-opioid (DOP) = molecular target: T11, Human δ-opioid (DOP) (Homo sapiens, UniProt P41143); assay: Radioligand binding, human δ-opioid (DOP) membranes, FlashPlate, [3H]-Bremazocine; settings: compound at 10 μM; [3H]-Bremazocine
T11 construct: purchased Perkin Elmer Biosignal
T11 sequence (P41143 whole entry): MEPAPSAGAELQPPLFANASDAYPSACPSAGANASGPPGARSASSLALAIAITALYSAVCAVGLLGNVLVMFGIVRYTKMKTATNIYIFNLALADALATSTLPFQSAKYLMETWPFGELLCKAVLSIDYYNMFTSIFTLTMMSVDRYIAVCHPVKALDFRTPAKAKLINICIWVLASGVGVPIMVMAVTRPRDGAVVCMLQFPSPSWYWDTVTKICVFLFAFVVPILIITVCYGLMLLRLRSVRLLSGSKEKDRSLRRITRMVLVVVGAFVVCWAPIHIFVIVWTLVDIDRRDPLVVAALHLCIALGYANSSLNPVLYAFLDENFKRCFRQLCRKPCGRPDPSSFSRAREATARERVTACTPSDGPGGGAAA
In short: as §2

T1 sequence (P25103 whole entry): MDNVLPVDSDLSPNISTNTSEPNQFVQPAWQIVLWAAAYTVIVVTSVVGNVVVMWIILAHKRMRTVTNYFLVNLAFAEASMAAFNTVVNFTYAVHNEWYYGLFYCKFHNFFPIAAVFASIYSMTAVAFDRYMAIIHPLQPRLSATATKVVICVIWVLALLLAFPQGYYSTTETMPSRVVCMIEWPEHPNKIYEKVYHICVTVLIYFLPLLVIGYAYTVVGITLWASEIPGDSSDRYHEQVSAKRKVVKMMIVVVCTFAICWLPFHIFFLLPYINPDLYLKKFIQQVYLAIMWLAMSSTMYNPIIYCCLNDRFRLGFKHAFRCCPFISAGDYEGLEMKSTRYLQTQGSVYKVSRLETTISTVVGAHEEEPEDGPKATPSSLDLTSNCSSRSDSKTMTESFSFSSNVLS

## CO[C@H]1[C@H](O)[C@@H](COCc2ccc3ccccc3c2)OC(OCCc2ccccc2)[C@@H]1NC(=O)CCCNC(=N)N (stereo partly drawn) [compound 116]
Human neurokinin (NK1)
  A8 radioligand binding, percentage inhibition: + (“+” indicates greater than 50% inhibition at 10 μM)
[1]
  A9 radioligand binding, percentage inhibition: − (“−” indicates less than 50% inhibition at 10 μM)
[2]
  A6 radioligand binding, percentage inhibition: − (“−” indicates less than 50% inhibition at 10 μM)
Human κ-Opioid (KOP)
  A2 radioligand binding, percentage inhibition: − (“−” indicates less than 50% inhibition at 10 μM)
Human opioid (ORL1)
  A10 radioligand binding, percentage inhibition: − (“−” indicates less than 50% inhibition at 10 μM)
Mouse urotensin (mUR2)
  A11 radioligand binding, percentage inhibition: − (“−” indicates less than 50% inhibition at 10 μM)
Human Melanocortin (MC3)
  A3 radioligand binding, percentage inhibition: − (“−” indicates less than 50% inhibition at 10 μM)
Human Melanocortin (MC4)
  A4 radioligand binding, percentage inhibition: − (“−” indicates less than 50% inhibition at 10 μM)
Human μ-opioid (MOP)
  A7 radioligand binding, percentage inhibition: − (“−” indicates less than 50% inhibition at 10 μM)
Human melanocortin (MC5)
  A5 radioligand binding, percentage inhibition: + (“+” indicates greater than 50% inhibition at 10 μM)
Human δ-opioid (DOP)
  A1 radioligand binding, percentage inhibition: − (“−” indicates less than 50% inhibition at 10 μM)

## NCCC(=O)NC1C(OCc2ccc(Cl)cc2)OC(COCc2ccccc2)C(O)C1OCc1ccc2ccccc2c1 (single isomer, unassigned) [compound 480]
Human neurokinin (NK1)
  A8: inhibition of radioligand binding, human neurokinin (NK1): + (“+” indicates greater than 50% inhibition at 10 μM)
[1]
  A9: inhibition of radioligand binding, human neuropeptide Y (NPY-Y1): − (“−” indicates less than 50% inhibition at 10 μM)
[2]; 10 µM
  A6: inhibition of radioligand binding, human melanin-concentrating hormone (MCH1): + (“+” indicates greater than 50% inhibition at 10 μM)
Human κ-Opioid (KOP)
  A2: inhibition of radioligand binding, human κ-opioid (KOP): − (“−” indicates less than 50% inhibition at 10 μM)
Human opioid (ORL1)
  A10: inhibition of radioligand binding, human opioid (ORL1): − (“−” indicates less than 50% inhibition at 10 μM)
Mouse urotensin (mUR2)
  A11: inhibition of radioligand binding, mouse urotensin (mUR2): − (“−” indicates less than 50% inhibition at 10 μM)
Human Melanocortin (MC3)
  A3: inhibition of radioligand binding, human melanocortin (MC3): − (“−” indicates less than 50% inhibition at 10 μM)
Human Melanocortin (MC4); 10 µM
  A4: inhibition of radioligand binding, human melanocortin (MC4): + (“+” indicates greater than 50% inhibition at 10 μM)
Human μ-opioid (MOP); 10 µM
  A7: inhibition of radioligand binding, human μ-opioid (MOP): + (“+” indicates greater than 50% inhibition at 10 μM)
Human melanocortin (MC5); 10 µM
  A5: inhibition of radioligand binding, human melanocortin (MC5): + (“+” indicates greater than 50% inhibition at 10 μM)
Human δ-opioid (DOP)
  A1: inhibition of radioligand binding, human δ-opioid (DOP): − (“−” indicates less than 50% inhibition at 10 μM)

## CSC1OC(COCc2ccc(-c3ccccc3)cc2)C(O)C(OCc2ccc3ccccc3c2)C1NC(=O)CCCN (stereo not drawn) [compound 315]
Human neurokinin (NK1)
  A8: inhibition of radioligand binding, human neurokinin (NK1): + (“+” indicates greater than 50% inhibition at 10 μM)
[1]
  A9: inhibition of radioligand binding, human neuropeptide Y (NPY-Y1): − (“−” indicates less than 50% inhibition at 10 μM)
[2]
  A6: inhibition of radioligand binding, human melanin-concentrating hormone (MCH1): − (“−” indicates less than 50% inhibition at 10 μM)
Human κ-Opioid (KOP)
  A2: inhibition of radioligand binding, human κ-opioid (KOP): − (“−” indicates less than 50% inhibition at 10 μM)
Human opioid (ORL1)
  A10: inhibition of radioligand binding, human opioid (ORL1): − (“−” indicates less than 50% inhibition at 10 μM)
Mouse urotensin (mUR2)
  A11: inhibition of radioligand binding, mouse urotensin (mUR2): − (“−” indicates less than 50% inhibition at 10 μM)
Human Melanocortin (MC3)
  A3: inhibition of radioligand binding, human melanocortin (MC3): − (“−” indicates less than 50% inhibition at 10 μM)
Human Melanocortin (MC4)
  A4: inhibition of radioligand binding, human melanocortin (MC4): − (“−” indicates less than 50% inhibition at 10 μM)
Human μ-opioid (MOP)
  A7: inhibition of radioligand binding, human μ-opioid (MOP): − (“−” indicates less than 50% inhibition at 10 μM)
Human melanocortin (MC5)
  A5: inhibition of radioligand binding, human melanocortin (MC5): − (“−” indicates less than 50% inhibition at 10 μM)
Human δ-opioid (DOP)
  A1: inhibition of radioligand binding, human δ-opioid (DOP): − (“−” indicates less than 50% inhibition at 10 μM)
